In PubChem BioAssay AID1259408 (Genetic Toxicology Data Bank (GENE-TOX), 2018) one finds mutagenic call and call data, which are given here for 24 compounds.

Activity calls are given as the source filed them. How the calls were made is not given here.

This data set has as its system GENE-TOX genotoxicity assays, various organisms and cells. Briefly: GENE-TOX mutagenicity studies. The conditions noted are these: for call: Assay Type: In vivo carcinogenicity studies.
Setting [1] is: Species/Cell Type: Salmonella typhimurium (one or more of the five standard strains: TA98, TA100, TA1535, TA1537, and TA1538), Assay Type: Histidine reverse gene mutation, Ames assay, Assay Code: SALT, Evaluation Type: Evaluation A (Pre-1980).
Where [2] appears, read: Species/Cell Type: Salmonella typhimurium (one or more of the five standard strains: TA98, TA100, TA1535, TA1537, and TA1538), Assay Type: Histidine reverse gene mutation, Ames assay, Assay Code: SAL+*, Activation: With metabolic activation, Evaluation Type: Evaluation A (Pre-1980).
The mark [3] stands for this setting: Species/Cell Type: Escherichia coli polA (W3110 vs P3478), Assay Type: Rec-assay, DNA effects (bacterial DNA repair), Assay Code: RE2+, Evaluation Type: Evaluation A (Pre-1980).
Setting [4] is: Species/Cell Type: Escherichia coli polA (W3119 vs P3478), Assay Type: Rec-assay, DNA effects (bacterial DNA repair), Assay Code: RE1T, Evaluation Type: Evaluation A (Pre-1980).
Setting [5] is: Species/Cell Type: Nonhuman, Assay Code: CCG+, Evaluation Type: Evaluation A (Pre-1980).
Setting [6] is: Species/Cell Type: Nonhuman, Assay Type: Sister-chromatid exchange (SCE) in vitro, Assay Code: SC2+, Evaluation Type: Evaluation B (Post-1980).
[7] abbreviates: Species/Cell Type: Salmonella typhimurium (one or more of the five standard strains: TA98, TA100, TA1535, TA1537, and TA1538), Assay Type: Histidine reverse gene mutation, Ames assay, Assay Code: SAL+, Evaluation Type: Evaluation A (Pre-1980).
The mark [8] stands for this setting: Species/Cell Type: Nonhuman, Assay Type: Sister-chromatid exchange (SCE) in vitro, Assay Code: SC2T, Evaluation Type: Evaluation B (Post-1980).

Regarding `CN(C)c1ccc2nc3c(C(=O)O)cc(=O)c(O)c-3oc2c1`, the mutagenic call (Species/Cell Type: Drosophila melanogaster, Assay Type: Sex-linked recessive lethal gene mutation, Assay Code: SRLT, Evaluation Type: Evaluation A (Pre-1980)) is recorded as “no conclusion”.
Consider `Nc1ccc(O)c([N+](=O)[O-])c1`, for which the mutagenic call (Species/Cell Type: Fischer rat embryo (RLV/1706) cells, Assay Type: Cell transformation, viral enhanced, Assay Code: CTR+, Evaluation Type: Evaluation A (Pre-1980)) is “active; positive” and the mutagenic call (Species/Cell Type: Rodents, Sex: Male, Assay Type: Dominant lethal test, Assay Code: DLT-, Evaluation Type: Evaluation A (Pre-1980)) is “inactive; negative”. In addition, the call (Species/Cell Type: Nonhuman, Assay Code: CCG+L, Evaluation Type: Evaluation A (Pre-1980)) is “active; positive”.
In the case of `COc1ccc2c3c1O[C@H]1[C@@H](O)C=C[C@H]4[C@@H](C2)N(C)CC[C@@]341`, the mutagenic call (Species/Cell Type: Mammalian polychromatic erythrocytes, Assay Type: Micronucleus test, chromosome aberrations, Assay Code: MNTT, Evaluation Type: Evaluation A (Pre-1980)) is “no conclusion” and the mutagenic call (Species/Cell Type: Mouse, Sex: Male, Assay Type: Sperm morphology, Assay Code: SPI-, Evaluation Type: Evaluation A (Pre-1980)) was “inactive; negative”.
Consider `Nc1nc(-c2ccc([N+](=O)[O-])[nH]2)cs1`, for which the mutagenic call under setting [1] is reported as “no conclusion”.
On to `COc1cc2c(c3oc(=O)c4c(c13)[C@@H](O)CC4=O)[C@@H]1C=CO[C@@H]1O2`, for which, under setting [2], the mutagenic call was “active; positive”.
As to `Cc1cc2ccccc2c2c(F)cc3ccccc3c12`, the mutagenic call under setting [1] is recorded as “no conclusion”.
For the compound `[S]=[Mo]=[S]`, where the note is “Species/Cell Type: Syrian hamster embryo (SA7/SHE) cells, Assay Type: Cell transformation, viral enhanced, Assay Code: CT7+, Evaluation Type: Evaluation A (Pre-1980)”, the mutagenic call was “active; positive”.
On to `CN1CCN(CC(=O)N2c3ccccc3C(=O)Nc3cccnc32)CC1`, for which, for the setting “Species/Cell Type: Mammalian polychromatic erythrocytes, Assay Type: Micronucleus test, chromosome aberrations, Assay Code: MNTT, Evaluation Type: Evaluation B (Post-1980)”, the mutagenic call is “no conclusion”.
On to `Nc1ccc2cc3ccccc3cc2c1`, for which the mutagenic call is “active; positive” under setting [3]; “no conclusion” under setting [4]; “inactive; negative” (Species/Cell Type: Mouse (BALB/c-3T3) cells, Assay Type: Cell transformation, Assay Code: CTB-, Evaluation Type: Evaluation A (Pre-1980)); “active; positive” (Species/Cell Type: Mouse embryo (AKR/ME) cells, Assay Type: Cell transformation, Assay Code: CTK+, Evaluation Type: Evaluation A (Pre-1980)); “active; positive” under setting [6]; “active; positive” (Species/Cell Type: Nonhuman, Assay Type: Sister-chromatid exchange (SCE) in vivo, Assay Code: SC3+D, Dose Response: With dose response, Evaluation Type: Evaluation B (Post-1980)). The mutagenic call is “inactive; negative” (Species/Cell Type: Saccharomyces cerevisiae, Assay Type: Mitotic recombination or gene conversion, Assay Code: YEH-, Evaluation Type: Evaluation A (Pre-1980)); “active; positive” under setting [2]; “active; positive” (Species/Cell Type: Salmonella typhimurium, Assay Type: Forward and reverse gene mutation, host-mediated assay, Assay Code: HMA+, Evaluation Type: Evaluation A (Pre-1980)); “active; positive” (Species/Cell Type: Syrian hamster embryo (SHE) cells, Assay Type: Cell transformation, clonal assay, Assay Code: CTC+, Evaluation Type: Evaluation A (Pre-1980)). The call under setting [5] is “active; positive”.
As to `CCCCN(CCCCO)N=O`, the mutagenic call was “no conclusion” under setting [4]; “inactive; negative” (Species/Cell Type: Nonhuman, Assay Type: Chromosome aberrations in vitro, Assay Code: CY&-, Evaluation Type: Evaluation A (Pre-1980)); “active; positive” (Species/Cell Type: Nonhuman, Assay Type: Sister-chromatid exchange (SCE) in vitro, Assay Code: SC2+D, Dose Response: With dose response, Evaluation Type: Evaluation B (Post-1980)); “no conclusion” (Species/Cell Type: Nonhuman, Assay Type: Sister-chromatid exchange (SCE) in vitro, Assay Code: SC2T, Evaluation Type: Evaluation A (Pre-1980)); “active; positive” under setting [7]. Also, the call under setting [5] is “active; positive”.
On to `Nc1ccn([C@H]2C[C@H](O)[C@@H](CO)O2)c(=O)n1`, for which the mutagenic call is, setting by setting: (Species/Cell Type: Chinese hamster lung (V79) cells, Assay Type: Forward gene mutation at the HPRT or ouabain locus, Assay Code: V79-, Evaluation Type: Evaluation A (Pre-1980)) “inactive; negative”; (Species/Cell Type: Glycine max (soybean), Assay Type: Gene mutation, Assay Code: GLM-, Evaluation Type: Evaluation A (Pre-1980)) “inactive; negative”; (Species/Cell Type: Human lymphocytes, Assay Type: Sister-chromatid exchange (SCE) in vitro, Assay Code: SCLT, Evaluation Type: Evaluation A (Pre-1980)) “no conclusion”; (Species/Cell Type: Human, Assay Type: Sister-chromatid exchange (SCE) in vitro, Assay Code: SC1T, Evaluation Type: Evaluation A (Pre-1980)) “no conclusion”; under setting [8], “no conclusion”.
As for `Cc1cc(/C=C/c2ccc3cc(N(C)C)ccc3[n+]2C)c(C)n1-c1ccccc1`, the mutagenic call by setting is: under setting [6], “active; positive”; under setting [2], “active; positive”.
Turning to `O=[N+]([O-])c1ccc(N=Nc2c(O)ccc3ccccc23)c(Cl)c1`, under setting [2], the mutagenic call is “active; positive”.
Take `CC(CCC(C)OS(C)(=O)=O)OS(C)(=O)=O` (stereo unspecified): the mutagenic call (Species/Cell Type: Drosophila melanogaster, Assay Type: Sex-linked recessive lethal gene mutation, Assay Code: SRL+, Evaluation Type: Evaluation A (Pre-1980)) is “active; positive”.
In the case of `CCC(C)c1ccccc1OC(=O)N(C)N=O` (stereo unspecified), the mutagenic call was “active; positive” (Species/Cell Type: Bacillus subtilis (H17 vs M45T), Assay Type: Rec-assay, spot test, DNA effects (bacterial DNA repair), Assay Code: REX+, Evaluation Type: Evaluation A (Pre-1980)) and “active; positive” (Species/Cell Type: Escherichia coli WP2, Assay Type: Tryptophan reverse gene mutation, Assay Code: WP2+, Evaluation Type: Evaluation A (Pre-1980)).
Regarding `Cc1c2c(c(CO)c3ccccc13)[C@H](O)[C@@H](O)c1ccccc1-2`, the mutagenic call (Species/Cell Type: Chinese hamster lung (V79) cells, Assay Type: Forward gene mutation at the HPRT or ouabain locus, Assay Code: V79-*, Activation: With metabolic activation, Evaluation Type: Evaluation A (Pre-1980)) is “inactive; negative”. Besides, the call (Species/Cell Type: Nonhuman, Assay Code: CCGT, Evaluation Type: Evaluation A (Pre-1980)) is recorded as “no conclusion”.
Consider `O=C1c2ccccc2C(=O)C1c1ccc2cc(S(=O)(=O)O)cc(S(=O)(=O)O)c2n1`, for which, under “Species/Cell Type: Bacillus subtilis (H17 vs M45), Assay Type: Rec-assay, spot test, DNA effects (bacterial DNA repair), Assay Code: REWT, Evaluation Type: Evaluation A (Pre-1980)”, the mutagenic call is on record as “no conclusion”.
Take `Cc1ccc(S(=O)(=O)N(C)N=O)cc1`: under “Species/Cell Type: Arabidopsis species, Assay Type: Gene mutation, Assay Code: ARM+, Evaluation Type: Evaluation A (Pre-1980)”, the mutagenic call was “active; positive”.
Turning to `O=[Si]=O`, under setting [8], the mutagenic call is given as “no conclusion”.
Take `CCN(CC)Cc1cc(CC(=O)NN)ccc1OC(C)C`: where the note is “Species/Cell Type: Saccharomyces cerevisiae, Assay Type: Reverse gene mutation, Assay Code: YERT, Evaluation Type: Evaluation A (Pre-1980)”, the mutagenic call is reported as “no conclusion”.
On to `CC(Cl)CCl` (stereo unspecified), for which the mutagenic call under setting [7] is “active; positive”.
For `CN(CC(=O)OC[C@H](N)C(=O)O)N=O`, the mutagenic call runs as follows: under setting [3], “active; positive”; under setting [4], “no conclusion”.
As to `Cc1n(C)c([N+](=O)[O-])c[n+]1C`, under setting [1], the mutagenic call was “no conclusion”.
For the compound `CCCCCCCCCCCCCC(=O)N(O)c1ccc2c(c1)Cc1ccccc1-2`, the mutagenic call by setting is: (Species/Cell Type: Human diploid fibroblasts, Assay Type: Unscheduled DNA synthesis (UDS) in vitro, DNA effects, Assay Code: UDH-, Evaluation Type: Evaluation A (Pre-1980)) “inactive; negative”; under setting [7], “active; positive”.
